# Test results as given in patent US20110105623A1 (Biogenic Innovations, LLC, priority 2009, published 2011).
# “And” between values parts separate entries of the source, which are not always exact repeats. Equal values may be shown once.
# Test system: Lactobacillus acidophilus
# Experiment: Recovery from Acidophilus milk fortified with MSM into broth without MSM
# Assay type: cell-based
# Details: for Recovery of Lactobacillus acidophilus in Milk fortified with MSM Day 14, initial start data: Day 14-0
# Procedure: The Acidophilus milk was low fat (Darigold). […] All preparations and plating was conducted at room temperature.
# The recovery study was run parallel to the study done on the affects of MSM on growth of Lactobacillus acidophilus in Acidophilus milk fortified with MSM. The recovery growth rate was analyzed on Day 7, Day 14, Day 21 and Day 28. For Table 27, the growth for Day x with no time is calculated from the initial growth study with the dilution factor into the log growth. […] Table 28 takes the value of 2.00 as the starting value.
substance,measurement,setting,value
Methylsulfonylmethane [MSM],Lag Recovery of Lactobacillus acidophilus in Milk fortified with MSM Day 7,"5% MSM, Day 7-72, duplicates",13.1 logs and 12.87 logs
same,recovery log growth lower than the control,"5.0% MSM, Day 14, first 24 hours",1.02 logs
same,"Recovery of Lactobacillus acidophilus in Milk fortified with MSM Day 14, initial start data",5.0% MSM,6.04 logs
same,"Recovery of Lactobacillus acidophilus in Milk fortified with MSM Day 14, average recovery","5.0% MSM, Day 14-24",9.60 logs
same,Lag Recovery of Lactobacillus acidophilus in Milk fortified with MSM Day 14,"5.0% MSM, Day 14-24, duplicates",9.6 logs
same,"Recovery of Lactobacillus acidophilus in Milk fortified with MSM Day 14, average recovery","5.0% MSM, Day 14-48",13.02 logs
same,Lag Recovery of Lactobacillus acidophilus in Milk fortified with MSM Day 14,"5.0% MSM, Day 14-48, duplicates",12.99 logs and 13.04 logs
same,"Recovery of Lactobacillus acidophilus in Milk fortified with MSM Day 14, average recovery","5.0% MSM, Day 14-72",12.43 logs
same,Lag Recovery of Lactobacillus acidophilus in Milk fortified with MSM Day 14,"5.0% MSM, Day 14-72, duplicates",12.65 logs and 12.21 logs
same,"Recovery of Lactobacillus acidophilus in Milk fortified with MSM Day 21, initial start data",5.0% MSM,3.56 logs
same,"Recovery of Lactobacillus acidophilus in Milk fortified with MSM Day 21, average recovery","5.0% MSM, Day 21-24",9.69 logs
same,"Recovery of Lactobacillus acidophilus in Milk fortified with MSM Day 21, average recovery","5.0% MSM, Day 21-48",13.08 logs
same,"Recovery of Lactobacillus acidophilus in Milk fortified with MSM Day 21, average recovery","5.0% MSM, Day 21-72",13.15 logs
same,"Recovery of Lactobacillus acidophilus in Milk fortified with MSM Day 28, initial start data",5.0% MSM,0.52 logs
same,"Recovery of Lactobacillus acidophilus in Milk fortified with MSM Day 28, average recovery","5.0% MSM, Day 28-24",5.56 logs
same,Lag Recovery of Lactobacillus acidophilus in Milk fortified with MSM Day 28,"5.0% MSM, Day 28-24, duplicates",5.64 logs and 5.48 logs
same,"Recovery of Lactobacillus acidophilus in Milk fortified with MSM Day 28, average recovery","5.0% MSM, Day 28-48",12.87 logs
same,Lag Recovery of Lactobacillus acidophilus in Milk fortified with MSM Day 28,"5.0% MSM, Day 28-48, duplicates",12.58 logs and 13.16 logs
same,"Recovery of Lactobacillus acidophilus in Milk fortified with MSM Day 28, average recovery","5.0% MSM, Day 28-72",12.48 logs
same,Lag Recovery of Lactobacillus acidophilus in Milk fortified with MSM Day 28,"5.0% MSM, Day 28-72, duplicates",12.49 logs and 12.47 logs
same,Day 7 log recovery growth rate increase from start time of zero,"5.0% MSM, Hour 0",0.00 logs
same,Day 14 log recovery growth rate increase from start time of zero,"5.0% MSM, Hour 0",0.00 logs
same,Day 21 log recovery growth rate increase from start time of zero,"5.0% MSM, Hour 0",0.00 logs
same,Day 7 log recovery growth rate increase from start time of zero,"5.0% MSM, Hour 24",4.00 logs
same,Day 14 log recovery growth rate increase from start time of zero,"5.0% MSM, Hour 24",3.56 logs
same,Day 21 log recovery growth rate increase from start time of zero,"5.0% MSM, Hour 24",6.13 logs
same,Day 7 log recovery growth rate increase from start time of zero,"5.0% MSM, Hour 48",0.47 logs
same,Day 14 log recovery growth rate increase from start time of zero,"5.0% MSM, Hour 48",3.42 logs
same,Day 21 log recovery growth rate increase from start time of zero,"5.0% MSM, Hour 48",3.39 logs
same,Day 7 log recovery growth rate increase from start time of zero,"5.0% MSM, Hour 72",−0.19 logs
same,Day 14 log recovery growth rate increase from start time of zero,"5.0% MSM, Hour 72",−0.59 logs
same,Day 21 log recovery growth rate increase from start time of zero,"5.0% MSM, Hour 72",0.08 logs
same,Day 28 log recovery growth rate increase from start time of zero,"5.0% MSM, Time 0",0.00 logs
same,Day 28 log recovery growth rate increase from start time of zero,"5.0% MSM, Time 24",5.04 logs
same,Day 28 log recovery growth rate increase from start time of zero,"5.0% MSM, Time 48",7.31 logs
same,Day 28 log recovery growth rate increase from start time of zero,"5.0% MSM, Time 72",−0.39 logs
same,"Recovery of Lactobacillus acidophilus in Milk fortified with MSM Day 7, initial start data","[…] MSM, Day 7",8.50 logs
same,"Recovery of Lactobacillus acidophilus in Milk fortified with MSM Day 7, average recovery","[…] MSM, Day 7-24",13.16 logs
same,"Recovery of Lactobacillus acidophilus in Milk fortified with MSM Day 7, average recovery","[…] MSM, Day 7-48",12.36 logs
same,"Recovery of Lactobacillus acidophilus in Milk fortified with MSM Day 7, average recovery","[…] MSM, Day 7-72",12.60 logs
same,"Recovery of Lactobacillus acidophilus in Milk fortified with MSM Day 14, initial start data",[…] MSM,5.33 logs
same,"Recovery of Lactobacillus acidophilus in Milk fortified with MSM Day 14, average recovery","[…] MSM, Day 14-24",9.87 logs
same,"Recovery of Lactobacillus acidophilus in Milk fortified with MSM Day 14, average recovery","[…] MSM, Day 14-48",12.32 logs
same,"Recovery of Lactobacillus acidophilus in Milk fortified with MSM Day 14, average recovery","[…] MSM, Day 14-72",12.57 logs
same,"Recovery of Lactobacillus acidophilus in Milk fortified with MSM Day 21, initial start data",[…] MSM,3.47 logs
same,"Recovery of Lactobacillus acidophilus in Milk fortified with MSM Day 21, average recovery","[…] MSM, Day 21-24",10.79 logs
same,"Recovery of Lactobacillus acidophilus in Milk fortified with MSM Day 21, average recovery","[…] MSM, Day 21-48",12.78 logs
same,"Recovery of Lactobacillus acidophilus in Milk fortified with MSM Day 21, average recovery","[…] MSM, Day 21-72",13.10 logs
same,"Recovery of Lactobacillus acidophilus in Milk fortified with MSM Day 28, initial start data",[…] MSM,1.33 logs
same,"Recovery of Lactobacillus acidophilus in Milk fortified with MSM Day 28, average recovery","[…] MSM, Day 28-24",6.37 logs
same,Lag Recovery of Lactobacillus acidophilus in Milk fortified with MSM Day 28,"[…] MSM, Day 28-24, duplicates",6.37 logs
same,"Recovery of Lactobacillus acidophilus in Milk fortified with MSM Day 28, average recovery","[…] MSM, Day 28-48",12.57 logs
same,"Recovery of Lactobacillus acidophilus in Milk fortified with MSM Day 28, average recovery","[…] MSM, Day 28-72",12.66 logs
same,Day 7 log recovery growth rate increase from start time of zero,"[…] MSM, Hour 0",0.00 logs
same,Day 14 log recovery growth rate increase from start time of zero,"[…] MSM, Hour 0",0.00 logs
same,Day 21 log recovery growth rate increase from start time of zero,"[…] MSM, Hour 0",0.00 logs
same,Day 7 log recovery growth rate increase from start time of zero,"[…] MSM, Hour 24",4.66 logs
same,Day 14 log recovery growth rate increase from start time of zero,"[…] MSM, Hour 24",4.54 logs
same,Day 21 log recovery growth rate increase from start time of zero,"[…] MSM, Hour 24",7.32 logs
same,Day 7 log recovery growth rate increase from start time of zero,"[…] MSM, Hour 48",−0.8 logs
same,Day 14 log recovery growth rate increase from start time of zero,"[…] MSM, Hour 48",2.45 logs
same,Day 21 log recovery growth rate increase from start time of zero,"[…] MSM, Hour 48",2.00 logs
same,Day 7 log recovery growth rate increase from start time of zero,"[…] MSM, Hour 72",0.25 logs
same,Day 14 log recovery growth rate increase from start time of zero,"[…] MSM, Hour 72",0.26 logs
same,Day 21 log recovery growth rate increase from start time of zero,"[…] MSM, Hour 72",0.32 logs
same,Day 28 log recovery growth rate increase from start time of zero,"[…] MSM, Time 0",0.00 logs
same,Day 28 log recovery growth rate increase from start time of zero,"[…] MSM, Time 24",5.04 logs
same,Day 28 log recovery growth rate increase from start time of zero,"[…] MSM, Time 48",6.20 logs
same,Day 28 log recovery growth rate increase from start time of zero,"[…] MSM, Time 72",0.09 logs
